Assay results: patent US12459951B2, “Compounds that interact with RAS superfamily proteins for treatment of cancers, inflammatory diseases, rasopathies, and fibrotic disease” (SHY Therapeutics, LLC, priority 2022, dated 2025)

Experiments:
Design in all cases: species or system human
PUMA expression = test: Cell-based Puma expression assay (western blot)
Method: (§1) Biological Example 4: Puma Expression and Caspases Activation Assay
(§2) Protocols for Cell-Based Puma Expression and Caspase Activation Assays
(§3) Cell lines: All human tumor-derived cancer cell lines were purchased from American Type Culture Collection. Human tumor-derived cancer cell lines Panc-1 (expressing KRas G12D mutant), MiaPaca-2 (expressing KRas G12C mutant), A549 (expressing KRas G12S mutant), and A375 (expressing wild type KRas) were grown in complete DMEM-High Glucose medium and NCI-H1975 (expressing wild type KRas), MM.1R (expressing wild type KRas) and IM.9 (expressing wild type KRas) were grown in RPMI1640 medium. Human tumor-derived cancer cell line BT-549 (expressing wild type KRas) was grown in RPMI1640 medium with 11.8U insulin. All mediums were supplemented with penicillin (100 U/mL), streptomycin (100 μg/mL), and 10% heat-inactivated FBS at 37° C. in a humidified incubator with 5% CO2.
(§4) Method: Cells were plated at 300,000 to 800,000 cells/well density in a 6-well plate in the presence of 10% FBS. The next day small molecules to be tested were added to the cells in the final concentration of 3 μM in the presence of 0.3% DMSO for 48 hours incubation at 37° C. For IC50 value determination, serial dilutions of compounds were added to cells under the same conditions. Following 48 hours of incubation cells were lysed with lysis buffer containing 1% Triton X-100, EDTA, and Halt™ Protease & Phosphatase Inhibitor Cocktail (Thermo Scientific). Protein concentration was assessed by BCA protein assay (Thermo Scientific). Increase expression of PUMA and active/cleaved forms of caspase 3, caspase 6 and caspase 9 were detected by western blot.
(§5) Western blot protocol: Equal amounts of protein (15-50 μg) were separated by SDS-PAGE and transferred to nitrocellulose membranes (Invitrogen by Thermo Fisher Scientific). The membrane was stained with Ponceau S Stain (Boston BioProducts) to verify uniform protein loading. Membranes were blocked with 10% milk and expression levels of PUMA was assessed by incubating overnight at 4° C. with the antibody PUMA (D30C10) from Cell Signaling Technology (#12450) and active/cleaved forms of caspase 3, caspase 6 and caspase 9 by incubating overnight at 4° C. with the following antibodies: cleaved caspase-3 (Asp175) (5A1E), cleaved caspase-6 (Asp162) and cleaved caspase-9 (Asp330) (D2D4) (all antibodies from Cell Signaling Technology). Then the membranes were incubated with HRP-conjugated secondary antibody (Jackson Immunoresearch, West Grove, PA). Bands were incubated in Amersham ECL Prime Western Blotting Detection Reagent (GE Healthcare) and visualized using the ChemiDoc MP imaging system (Bio-Rad).

active/cleaved caspase 9 = test: Cell-based caspase activation assay (western blot)
Method: as §1, §2, §3, §4, §5

active/cleaved caspase 6 = test: Cell-based caspase activation assay (western blot)
Method: as §1, §2, §3, §4, §5

active/cleaved caspase 3 = test: Cell-based caspase activation assay (western blot)
Method: as §1, §2, §3, §4, §5

Cc1c(-c2ccn(C(C)C)n2)cn2nc(-c3nccn3C)nc(Nc3cc4n(n3)CCO4)c12 [Compound 91, N-(6-(1-Isopropyl-1H-pyrazol-3-yl)-5-methyl-2-(1-methyl-1H-imidazol-2-yl)pyrrolo[2,1-f][1,2,4]triazin-4-yl)-2,3-dihydropyrazolo[5,1-b]oxazol-6-amine]
yes: Increased PUMA expression (PUMA expression; A549, after 48 hours) | Increased PUMA expression (PUMA expression; BT-549, after 48 hours) | Increased PUMA expression (PUMA expression; MiaPaca2, after 48 hours) | Caspase 9 activation (active/cleaved caspase 9; A549, after 48 hours) | Caspase 9 activation (active/cleaved caspase 9; BT-549, after 48 hours) | Caspase 9 activation (active/cleaved caspase 9; MiaPaca2, after 48 hours) | Caspase 6 activation (active/cleaved caspase 6; A549, after 48 hours) | Caspase 6 activation (active/cleaved caspase 6; BT-549, after 48 hours) | Caspase 6 activation (active/cleaved caspase 6; MiaPaca2, after 48 hours) | Caspase 3 activation (active/cleaved caspase 3; A549, after 48 hours) | Caspase 3 activation (active/cleaved caspase 3; BT-549, after 48 hours) | Caspase 3 activation (active/cleaved caspase 3; MiaPaca2, after 48 hours)
